Data as given in article PMC11815855, “Exploring the Structure–Activity Relationships of Albumin-Targeted Picoplatin-Based Platinum(IV) Prodrugs” (Inorganic Chemistry, 2025).
Marks after values point to notes of the source that are not given here.

Key:
[1] = system: A2780/wt ovarian cancer cells; assay: MTT-based cell viability assay, A2780/wt, 72 h; parameters: species or system human; settings: 72 h drug exposure, means of independent experiments
Source text: (§1) For the cell culture assays, the human ovarian model A2780/wt and its corresponding cisplatin-resistant subline A2780/cis (both purchased from Sigma and cultured in RPMI1640 medium), the human colorectal cancer model HCT116 (cultured in McCoy′s medium), and the murine (Balb/c) colorectal cancer model CT26 (cultured in DMEM/F-12 (1:1) medium) were used. The colon cancer models were purchased from the American Type Culture Collection (ATCC). The media were supplemented with 10% FCS (purchased from PAA Linz, Austria). To maintain drug resistance of A2780/cis, the subline was cultivated under continuous selection pressure (1 μM cisplatin). The selection drug was removed 1 week before the experiments were performed. Cell cultures were maintained at 37 °C in humidified atmosphere containing 5% CO2. All cultures were free of antibiotics and regularly checked for mycoplasma contamination. All cell culture media and reagents were purchased from Sigma-Aldrich Austria. All investigated drugs were dissolved in either water (oxaliplatin, carboplatin) or DMF before further dilution in cell culture medium. DMF concentrations were always below 0.5%.
(§2) Subsequently, the cells were incubated with the tested compounds in rising concentrations. […] The received data were visualized as dose–response curves by Graph Pad Prism 5 software (Graph Pad software, USA).

[2] = system: A2780/cis ovarian cancer cells; assay: MTT-based cell viability assay, A2780/cis (cisplatin-resistant), 72 h; parameters: species or system human; settings: for IC50 in A2780/cis compared to A2780/wt / RF (resistance factor): 72 h; for IC50 in A2780/cis compared to A2780/wt / IC50: MTT-based assay; for IC50: 72 h drug exposure, cisplatin-resistant subline, means of independent experiments; for RF (resistance factor): fold-change between IC50 values of A2780/cis:A2780/wt
Source text: as §1, §2

[3] = system: HCT116 colon cancer cells; assay: MTT-based cell viability assay, HCT116, 72 h; parameters: species or system human; settings: 72 h drug exposure
Source text: as §1, §2

CT26 colon cancer cells [4] = assay: MTT-based cell viability assay, CT26, 72 h; parameters: species or system murine; settings: 72 h drug exposure
Source text: as §1, §2

[5] = system: HCT116 colon cancer cells; assay: Colony formation (clonogenic) assay, HCT116, 7 days; type: cell-based, human; settings: for IC50: 7 days drug exposure, clonogenic assay
Source text: as §1
(§3) Then, cells were exposed to the indicated drugs in rising concentrations. After 7 days, the cells were fixed with methanol for 20 min at 4 °C and stained with crystal violet 5 (0.01% in PBS). The fluorescence of the crystal violet was detected by the Typhoon scanner (Typhoon TRIO Variable Mode Imager, GE Healthcare Life Sciences) after excitation by the red laser (633 nm). Quantification was done with ImageJ software.

CT26 colon cancer cells [6] = assay: Colony formation (clonogenic) assay, CT26, 7 days; type: cell-based, murine; settings: 7 days drug exposure
Source text: as §1, §3

[7] = Interaction of platinum(II) complexes with 10 equiv GSH, NMR; type: physicochemical; settings: 1 mM complex, 10% D2O/90% PBS pH 7.4, 37 °C, 8 h, 1H NMR
Procedure: The amount of remaining platinum(II) complex was monitored via ^1H NMR spectroscopy and, particularly for ^15N-cisplatin, via [^1H, ^15N] heteronuclear single quantum coherence (HSQC) NMR spectroscopy (Figure 1).[47]
(§4) An 1 mM solution of Pt compound was incubated in a mixture of 90% PB or PBS (150 mM, pH 7.4) and 10% D2O at 37 °C with and without the addition of 10 equiv GSH. The reaction was monitored with ^1H or [^1H, ^15N] […] The reference spectrum was shifted with a value of −0.5 ppm compared to the original ppm value calibrated to D2O before overlay with a spectrum at a single time point. In case of ^15N-cisplatin, the cross-peak of the parental complex in [^1H, ^15N] HSQC at time point 0 h was used as reference, and spectral overlay was achieved by shifting the 2D spectra at all given time points (2, 4, 6, and 8 h) with vertical steps of +14 ppm compared to the original ^15N NMR ppm value of the parental complex.

[8] = Stability of platinum(II) complexes in PBS or PB, NMR; type: physicochemical; settings: 1 mM, pH 7.4, 37 °C, 8 h incubation, no GSH
Procedure: as §4

CT26 allografts [9] = settings: carboplatin 60 mg/kg i.v. once a week for two weeks, Figure S11
Procedure: days after first treatment
Balb/c mice. Mice were treated i.v. with the maximal tolerated dose of the respective drug and compared
to the solvent control. […] Oxaliplatin (9
mg/kg) was applied twice a week for two weeks. Tumor volume data are presented as means ± SEM. The
overall survival is depicted via a Kaplan –Meier curve.

[10] = Reduction kinetics of platinum(IV)-succinimide complexes with AA, UHPLC; type: physicochemical; settings: 1 mM, 150 mM PB pH 7.4, 20 °C
Procedure: (§5) Platinum(IV) prodrugs need to be reduced in the tumor environment to release the cytotoxic platinum(II) complexes. Thus, the reduction properties of Pico-Succ, PicoCarbo-Succ, and PicoOxali-Succ were investigated. As mentioned above, succinimide complexes were used for these studies to avoid competitive hydrolysis of the maleimide moiety. All platinum(IV)-succinimide complexes were incubated in both the absence and presence of a 10-fold excess L-ascorbic acid (AA) in PB at pH 7.4 and 20 °C over 6 h. The amount of remaining intact platinum(IV) complex at given time points was measured via ultrahigh performance liquid chromatography (UHPLC), as shown in Figure 2. Pico-Succ was reduced extremely fast, with only traces of the original complex left in the first measurement after ∼5 min of incubation. Even with equimolar amounts of AA, 90% of Pico-Succ was already reduced after ∼5 min (Figure S6). This level of reductive instability is exceptionally high, even when compared to the “fast” reducing cisplatin(IV) prodrugs, which show a complete conversion after ∼10 h in the presence of 10 equiv AA.[41],[53]
(§6) PB (150 mM, pH 7.4) containing 1 mM Pt compound was incubated at 20 °C with and without the addition of 10 equiv L-ascorbic acid or reduced GSH. The reaction was monitored on a Thermo Scientific Dionex UltiMate 3000 UHPLC-system using a Waters Acquity UPLC BEH C18 1.7 μm, 3.0 × 50 mm column. Milli-Q water containing 0.1% formic acid and acetonitrile containing 0.1% formic acid were used as eluents. A gradient of 5–95% over 5 min was used with a flow of 0.6 mL/min. To evaluate the reaction process, we used the peak area of the parental complex.

[11] = Reduction of platinum(IV)-succinimide complexes with 10 equiv GSH, UHPLC; type: physicochemical; settings: 1 mM, 150 mM PB pH 7.4, 20 °C, 5 min
Source text: It is well-known that platinum(IV) complexes derived from, e.g., oxaliplatin or carboplatin, bearing leaving groups other than chlorido ligands, have distinctly slower reduction rates compared to cisplatin(IV) analogs.[54] This can be explained by a bridging interaction between the chlorido ligands and the reducing agent, which facilitates electron transfer to the platinum center.[55] […] The reductive behavior was also investigated in the presence of 10 equiv GSH in coherence with the above investigated interactions of platinum(II) with GSH (Figure S8).
as §6

[12] = Hydrolytic stability of platinum(IV)-succinimide complexes in PB without AA, UHPLC; type: physicochemical; settings: 1 mM, 150 mM PB pH 7.4, 20 °C
Procedure: as §5
PB (150 mM, pH 7.4) containing 1 mM Pt compound was incubated at 20 °C with and without the addition of 10 equiv L-ascorbic acid or reduced GSH. The reaction was monitored on a Thermo Scientific Dionex UltiMate 3000 UHPLC-system using a Waters Acquity UPLC BEH C18 1.7 μm, 3.0 × 50 mm column. […]

albumin = albumin (Bos taurus, UniProt P02769); assay: Albumin binding and stability in phosphate-buffered FCS, SEC-ICP-MS; settings: 50 μM in FCS (150 mM PB, pH 7.4), 37 °C, 1 h
Chain of albumin (P02769 25-607): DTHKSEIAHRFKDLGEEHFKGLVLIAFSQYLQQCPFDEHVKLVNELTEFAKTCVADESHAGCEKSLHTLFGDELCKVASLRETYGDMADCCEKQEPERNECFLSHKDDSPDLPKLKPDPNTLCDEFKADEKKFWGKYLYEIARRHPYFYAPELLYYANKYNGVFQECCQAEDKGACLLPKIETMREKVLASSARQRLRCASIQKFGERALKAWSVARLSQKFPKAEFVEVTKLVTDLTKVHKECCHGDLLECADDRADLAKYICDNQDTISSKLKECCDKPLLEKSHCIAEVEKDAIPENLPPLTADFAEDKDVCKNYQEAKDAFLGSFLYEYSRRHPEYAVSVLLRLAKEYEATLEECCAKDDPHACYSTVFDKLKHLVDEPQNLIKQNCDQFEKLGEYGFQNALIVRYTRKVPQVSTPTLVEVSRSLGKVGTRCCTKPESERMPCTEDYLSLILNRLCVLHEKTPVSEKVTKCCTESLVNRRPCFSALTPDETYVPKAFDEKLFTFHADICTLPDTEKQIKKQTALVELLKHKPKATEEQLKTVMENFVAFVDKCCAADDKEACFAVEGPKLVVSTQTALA
Procedure: FCS was purchased from Sigma-Aldrich and buffered with 150 mM phosphate pH 7.4 in order to guarantee a stable pH. The platinum(IV) complexes were dissolved in 150 mM PB (pH 7.4) at a concentration of 5 mM and diluted 1:100 in buffered serum to obtain a final concentration of 50 μM. […] Between each sample, a pure water blank was measured. […] Oxygen (purity 5.5, Messer Austria GmbH, Gumpoldskirchen, Austria) was used as the reaction gas.

horse heart CytC = target: T1, horse heart CytC (Equus caballus, UniProt P00004); assay: Reduction with cytochrome C and NADH, UHPLC; type: biochemical; settings: 700 μM, 0.1 equiv CytC and 10 equiv NADH, 50 mM PB pH 6.0, 37 °C
T1 construct: 0.1 equiv horse heart CytC; from tissue; host or cells: horse heart
T1 sequence (P00004 whole entry): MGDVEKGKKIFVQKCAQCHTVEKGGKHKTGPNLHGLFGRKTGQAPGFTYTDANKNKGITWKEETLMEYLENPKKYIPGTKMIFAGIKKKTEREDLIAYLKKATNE
Source text: (§7) To explain the rather unusual in vivo findings, especially with respect to Pico-Mal, we hypothesized that inefficient reductive release of the platinum(II) core from albumin due to steric hindrance of the 2-picoline could provide a plausible explanation for the lack of antitumor activity despite a favorable pharmacokinetic profile. […] To gain insights into whether the molecular weight and thus steric demands of the reducing agent impact the reduction of picoplatin(IV) derivatives, Pico-Succ and the reference complex Cis-Succ were analyzed in the presence of cytochrome C (CytC; ∼12,000 g/mol) or AA (176 g/mol). Therefore, Pico-Succ and Cis-Succ (for synthesis and ^1H NMR characterization, see experimental part and Scheme S1) were coincubated at pH 6.0 with 0.1 equiv CytC[60] and 10 equiv reduced NADH or with 10 equiv AA at 37 °C over 4 h, and the reduction kinetics were compared relatively. The amount of remaining intact platinum(IV) complex at given time points was measured via UHPLC (Figure 6). […]
(§8) PB (50 mM, pH 6.0) containing 700 μM Pt compound was incubated at 37 °C with the addition of 0.1 equiv horse heart CytC and 10 equiv reduced NADH or with 10 equiv L-ascorbic acid. The reaction was monitored on a Thermo Scientific Dionex UltiMate 3000 UHPLC-system using a Waters Acquity UPLC BEH peptide C18 1.7 μm 2.1 × 100 mm column. […]

[13] = Reduction with 10 equiv AA at pH 6.0 and 37 °C, UHPLC; type: physicochemical; settings: 700 μM, 50 mM PB pH 6.0, 37 °C
Source text: as §7, §8

CT26 allografts [14] = settings: oxaliplatin 9 mg/kg i.v. twice a week for two weeks, Figure S11 ref Schueffl et al, Chem. Sci. 2021, 12, 12587-12599; cited from earlier work

For `N.N.O=C([O-])C1(C(=O)[O-])CCC1.[Pt+2]` [carboplatin], the IC50 [1] was 32 µM, the “IC50 in A2780/cis compared to A2780/wt” value [2] was 2.3 fold and the IC50 [2] was 74.9 µM. For the same compound, the “RF (resistance factor)” value [2] was 2.3****, the IC50 [3] was 63.2 µM and the IC50 (CT26 colon cancer cells [4]) was 22.1 µM. For the same compound, the IC50 [5] was 7.41 µM, the IC50 (CT26 colon cancer cells [6]) was 4.37 µM and the “intact platinum(II) complex left after 8 h with GSH” value [7] was ~60%. For the same compound, the “complex left in 10% D2O/90% PBS” value [8] was > 95% and the “response of CT26 allografts to carboplatin” value (CT26 allografts [9]) was “highly carboplatin-resistant”.

In the case of `CC(=O)[O][Pt]([Cl])([Cl])[O]C(=O)NCCN1C(=O)CCC1=O.Cc1ccccn1.N` [Pico-Succ, (OC-6-21)[Acetato(ammine)(dichlorido)(1-(2-isocyanatoethyl)pyrrolidine-2,5-dione)(2-methylpyridine)platinum(IV)]], the IC50 [1] is reported as 63.2 µM, the IC50 [2] is reported as > 100 µM and the “RF (resistance factor)” value [2] is reported as >1.6. The IC50 [3] was > 100 µM, the IC50 (CT26 colon cancer cells [4]) was 77.8 µM and the IC50 [5] was 32.1 µM. The “reduction of IC50 values, 7 days vs 72 h” value ([5]; HCT116 and CT26, colony formation 7 days compared to MTT 72 h) was 2–3 fold, the IC50 (CT26 colon cancer cells [6]) was 30.9 µM and the “original complex left after ∼5 min with 10 equiv AA” value ([10]; 10 equiv AA, first measurement ∼5 min) was “only traces”. The “complex reduced after ∼5 min with equimolar AA” value ([10]; equimolar AA, ∼5 min) was 90%, the “original compound remaining after 5 min with 10 equiv GSH” value [11] was “only traces” and the “time stable in absence of AA” value [12] was “over 6 h”. For the same compound, the “intact platinum(IV) complex left after 1 h in FCS” value (albumin) was “only traces”, the “time to complete reduction with CytC” value (horse heart CytC) was 1 h and the “reduction with AA” value [13] was “immediate reduction”.

For “(OC-6-44)[Acetatodiamminedichlorido[2-(2,5-dioxopyrrolidin-1-yl)butyl)carbamato]platinum(IV)] [Cis-Succ, reference compound]”, the “time to complete reduction with CytC” value (horse heart CytC) was 4 h and the “reduction with AA after 4 h” value ([13]; 4 h) was ~40%.

With `O=C1[O][Pt]2([NH][C@@H]3CCCC[C@H]3[NH]2)[O]C1=O` [oxaliplatin] the IC50 [1] was 0.63 µM, the “IC50 in A2780/cis compared to A2780/wt” value [2] was 1.1 fold and the IC50 [2] was 0.68 µM. For the same compound, the “RF (resistance factor)” value [2] was 1.1^ns, the IC50 [3] was 2.19 µM and the IC50 (CT26 colon cancer cells [4]) was 1.97 µM. The IC50 [5] was 1.46 µM, the IC50 (CT26 colon cancer cells [6]) was 1.81 µM and the “complex left in 10% D2O/90% PB” value [8] was > 90%. For the same compound, the “complex left in 10% D2O/90% PBS” value [8] was “readily degraded” and the “response of CT26 allografts to oxaliplatin” value (CT26 allografts [14]) was “only moderately responsive”.
